Tested on: bacterial strain Shinella granuli
Assay: Oxitop respirometric screening test (oxygen overconsumption as signature of uncoupling, 7 days)
Format: cell-based
Conditions: for uncoupling percentage relative to the control: Shinella granuli, 7 days
Text: In order to evaluate the reduction in sludge production by a chemical uncoupling agent in screening, the respirometric technique of Oxitop® cylinders is used. Bacterial strains known and representative of activated sludge (since they are isolated in aeration tanks) are inoculated into a culture medium in the presence of a certain concentration of the uncoupling agent over a period of 7 days. By comparing the respiration of treated inocula comparatively with controls (untreated inocula), it is possible to measure oxygen overconsumption, a physiological signature of the uncoupling effect on bacteria.
The method and the apparatus used are those described in Example 3 of WO 2004/113236 cited as a reference.
The results obtained in a screening test on the bacterial strain Shinella granuli, are gathered in Table 1 below. They are expressed as an uncoupling percentage relative to the control (not comprising any uncoupling agent). THPS (tetrakis(hydromethyl)phosphonium sulfate) produces uncoupling effects in oxitop® respirometry tests of 16±8% for a rated concentration of 3 ppm, the 95% confidence interval of THPS in terms of uncoupling factor being, […] from results obtained in 26 Oxitop® tests.

| SMILES | uncoupling percentage relative to the control (0.1 ppm uncoupling agent) | uncoupling percentage relative to the control (0.5 ppm uncoupling agent) | uncoupling percentage relative to the control (1 ppm uncoupling agent) | uncoupling percentage relative to the control (2 ppm uncoupling agent) | uncoupling percentage relative to the control (3 ppm uncoupling agent) | uncoupling percentage relative to the control (8 ppm uncoupling agent) | uncoupling percentage relative to the control (10 ppm uncoupling agent) | uncoupling percentage relative to the control (20 ppm uncoupling agent) | uncoupling factor (concentration range between 2 and 20 ppm, summary drawn from Table 1) |
| --- | --- | --- | --- | --- | --- | --- | --- | --- | --- |
| C[N+](C)(C)CC(=O)[O-] [Glycine betaine, glycine betaine] | 5% | 18% | 0% | 20%-26% | 24%-25% | 20%-26% | 12-20% | – | – |
| OCC(CO)(CO)CO [Pentaerythritol, pentaerythritol] | – | 2% | 8% | – | 19% | – | – | 22% | ~20% |
| COc1cc(C=O)ccc1O [Vanillin, vanillin] | 5% | 18% | 14% | 18%-25% | 15%-22% | 21%-21% | 18%-23% | 18% | – |
